Results reported in PubChem BioAssay AID256 (DTP/NCI, 2004).
Values joined by “and” are separate entries in the source; they are usually repeats but may differ in a detail not shown here. Equal entries are not always repeated. Toxic doses and inconclusive results are not listed.

Test system: CD2F1 mice, L1210 leukemia ip, survival T/C
Assay: NCI In Vivo Anticancer Drug Screen. Data for tumor model L1210 Leukemia (intraperitoneal) in CD2F1 (CDF1) mice
Details: endpoint: mean survival time, higher = longer survival
Summary of the method: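 Mice carrying a transplanted tumor received test compound or vehicle alone. The value is the measurement in the treated group divided by that in the vehicle-treated control group.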

[1] = dose: 100.0 mg/kg/injection, schedule: Q04DX003 (ip), vehicle: saline with Tween-80
[2] = dose: 25.0 mg/kg/injection, schedule: Q01DX009 (ip), vehicle: saline
[3] = dose: 50.0 mg/kg/injection, schedule: Q01DX009 (ip), vehicle: saline
[4] = dose: 100.0 mg/kg/injection, schedule: Q01DX009 (ip), vehicle: saline
[5] = dose: 100.0 mg/kg/injection, schedule: Q01DX009 (ip), vehicle: saline with Tween-80
[6] = dose: 200.0 mg/kg/injection, schedule: Q01DX009 (ip), vehicle: saline with Tween-80
[7] = dose: 100.0 mg/kg/injection, schedule: Q04DX003 (ip), vehicle: Klucel (hydroxypropylcellulose) (HPC)
[8] = dose: 200.0 mg/kg/injection, schedule: Q04DX003 (ip), vehicle: Klucel (hydroxypropylcellulose) (HPC)
[9] = dose: 400.0 mg/kg/injection, schedule: Q04DX003 (ip), vehicle: Klucel (hydroxypropylcellulose) (HPC)
[10] = dose: 75.0 mg/kg/injection, schedule: Q01DX001 (ip), vehicle: saline
[11] = dose: 100.0 mg/kg/injection, schedule: Q01DX001 (ip), vehicle: saline with Tween-80
[12] = dose: 200.0 mg/kg/injection, schedule: Q01DX001 (ip), vehicle: saline with Tween-80
[13] = dose: 400.0 mg/kg/injection, schedule: Q01DX001 (ip), vehicle: saline with Tween-80
[14] = dose: 400.0 mg/kg/injection, schedule: Q01DX001 (ip), vehicle: saline
[15] = dose: 12.5 mg/kg/injection, schedule: Q01DX009 (ip), vehicle: saline
[16] = dose: 200.0 mg/kg/injection, schedule: Q04DX003 (ip), vehicle: saline with Tween-80
[17] = dose: 400.0 mg/kg/injection, schedule: Q01DX009 (ip), vehicle: saline with Tween-80
[18] = dose: 25.0 mg/kg/injection, schedule: Q01DX009 (ip), vehicle: saline with Tween-80
[19] = dose: 50.0 mg/kg/injection, schedule: Q01DX009 (ip), vehicle: saline with Tween-80

CCC(C#N)C1=CCCCCC1 (configuration not stated)
T/C [1]: 103 % of control

CS(C)(=O)=C/C(=C\C(=O)c1ccccc1)c1ccccc1
T/C [2]: 94 % of control | T/C [3]: 94 % of control | T/C [4]: 94 % of control

CN(C)C(=O)c1ccc(Cl)c(Cl)c1
T/C [5]: 102 % of control | T/C [6]: 107 % of control

N#CC1c2ccccc2C=CN1C(=O)OCc1ccccc1 (configuration not stated)
T/C [7]: 91 % of control | T/C [8]: 110 % of control | T/C [9]: 106 % of control

Cc1cc2nc(N)n(C3OC(CO)C(O)C3O)c2cc1C (configuration not stated)
T/C [10]: 108 % of control | T/C (dose: 150.0 mg/kg/injection, schedule: Q01DX001 (ip), vehicle: saline): 105 % of control | T/C (dose: 300.0 mg/kg/injection, schedule: Q01DX001 (ip), vehicle: saline): 103 % of control

CCCCCCCCCCCCCCCCOc1ccc(C(=O)OC)cc1NS(=O)(=O)c1ccc(C(=O)O)cc1
T/C [11]: 96 % of control | T/C (dose: 100.0 mg/kg/injection, schedule: Q01DX009 (ip), vehicle: Klucel (hydroxypropylcellulose) (HPC)): 98 % of control | T/C [12]: 98 % of control | T/C (dose: 200.0 mg/kg/injection, schedule: Q01DX009 (ip), vehicle: Klucel (hydroxypropylcellulose) (HPC)): 95 % of control | T/C [13]: 91 % of control | T/C (dose: 400.0 mg/kg/injection, schedule: Q01DX009 (ip), vehicle: Klucel (hydroxypropylcellulose) (HPC)): 98 % of control

CC(C)C(C)CCC(C)C1CCC2=C3CCC4CC(O)CCC4(C)C3CCC21C (configuration not stated)
T/C (dose: 75.0 mg/kg/injection, schedule: Q01DX001 (ip), vehicle: saline with Tween-80): 89 % of control | T/C (dose: 150.0 mg/kg/injection, schedule: Q01DX001 (ip), vehicle: saline with Tween-80): 92 % of control | T/C (dose: 300.0 mg/kg/injection, schedule: Q01DX001 (ip), vehicle: saline with Tween-80): 100 % of control

NC1=Nc2ccccc2CS1
T/C (dose: 9.4 mg/kg/injection, schedule: Q01DX009 (ip), vehicle: saline): 95 % of control | T/C (dose: 18.8 mg/kg/injection, schedule: Q01DX009 (ip), vehicle: saline): 107 % of control | T/C (dose: 37.5 mg/kg/injection, schedule: Q01DX009 (ip), vehicle: saline): 89 % of control | T/C [10]: 98 % of control

COc1cccc2c1C(=O)c1c(O)c3c(c(O)c1C2=O)C[C@@](O)(C(=O)COC(=O)c1ccccc1)C[C@@H]3OC1CC(N)C(O)C(C)O1 (some centres not stated)
T/C (dose: 0.5 mg/kg/injection, schedule: Q01DX009 (ip), vehicle: saline sonified): 122 % of control | T/C (dose: 1.3 mg/kg/injection, schedule: Q04DX003 (ip), vehicle: Klucel (hydroxypropylcellulose) (HPC)): 124 % of control

Brc1cnc2n[nH]nc2c1
T/C (dose: 100.0 mg/kg/injection, schedule: Q01DX001 (ip), vehicle: saline): 109 % of control | T/C (dose: 200.0 mg/kg/injection, schedule: Q01DX001 (ip), vehicle: saline): 97 % of control | T/C [14]: 97 % of control

O=C(O)CS (tested in a mixture with another compound)
T/C [15]: 102 % of control | T/C [2]: 93 % of control | T/C [4]: 93 % of control

O=S(=O)(O)c1ccc(-c2ccc(S(=O)(=O)O)cc2)cc1 (tested in a mixture with another compound)
T/C (dose: 6.3 mg/kg/injection, schedule: Q01DX009 (ip), vehicle: saline): 95 % of control | T/C (dose: 6.3 mg/kg/injection, schedule: Q04DX003 (ip), vehicle: saline): 121 % of control and 108 % of control | T/C (dose: 12.0 mg/kg/injection, schedule: Q01DX001 (ip), vehicle: saline): 118 % of control | T/C (dose: 12.5 mg/kg/injection, schedule: Q01DX001 (ip), vehicle: saline): 117 % of control and 123 % of control | T/C [15]: 150 % of control | T/C (dose: 12.5 mg/kg/injection, schedule: Q04DX003 (ip), vehicle: saline): 122 % of control | T/C [2]: 162 % of control and 172 % of control and 180 % of control | T/C (dose: 50.0 mg/kg/injection, schedule: Q01DX001 (ip), vehicle: saline): 150 % of control | T/C [3]: 115 % of control and 205 % of control and 342 % of control | T/C (dose: 50.0 mg/kg/injection, schedule: Q04DX003 (ip), vehicle: saline): 160 % of control and 190 % of control and 205 % of control | T/C (dose: 75.0 mg/kg/injection, schedule: Q04DX003 (ip), vehicle: saline): 195 % of control | T/C [4]: 100 % of control and 102 % of control | T/C (dose: 100.0 mg/kg/injection, schedule: Q04DX003 (ip), vehicle: saline): 248 % of control and 275 % of control and 489 % of control | T/C (dose: 150.0 mg/kg/injection, schedule: Q04DX003 (ip), vehicle: saline): 217 % of control | T/C (dose: 200.0 mg/kg/injection, schedule: Q04DX003 (ip), vehicle: saline): 120 % of control

O=C(O)/C=C\SCCCC(=O)O
T/C [11]: 94 % of control | T/C [12]: 111 % of control | T/C [13]: 103 % of control

COc1cccc(N2C(=O)CSC2=S)c1
T/C [1]: 107 % of control | T/C [16]: 96 % of control | T/C (dose: 400.0 mg/kg/injection, schedule: Q04DX003 (ip), vehicle: saline with Tween-80): 106 % of control

CCCCNC(C)(C)C(SSSC(c1cccs1)C(C)(C)NCCCC)c1cccs1 (configuration not stated)
T/C (dose: 100.0 mg/kg/injection, schedule: Q01DX009 (ip), vehicle: saline sonified): 100 % of control | T/C (dose: 200.0 mg/kg/injection, schedule: Q01DX009 (ip), vehicle: saline sonified): 103 % of control

CCOC(=O)C(=O)Cc1cc(=O)cc(C)o1
T/C [5]: 95 % of control | T/C [6]: 92 % of control | T/C [17]: 93 % of control

NP(=O)(Oc1ccccc1)Oc1ccccc1
T/C [18]: 96 % of control | T/C [1]: 90 % of control

c1ccc(C2=C(c3ccccc3)OC(c3ccccc3)=C(c3ccccc3)O2)cc1
T/C [18]: 92 % of control | T/C (dose: 50.0 mg/kg/injection, schedule: Q01DX001 (ip), vehicle: saline with Tween-80): 87 % of control | T/C [19]: 102 % of control | T/C [11]: 89 % of control | T/C [5]: 88 % of control

N#CC(/C=C/c1ccccc1)Nc1ccccc1O (configuration not stated)
T/C [5]: 93 % of control

CN(C)CCCNC(=S)S
T/C (dose: 6.0 mg/kg/injection, schedule: Q04DX003 (ip), vehicle: saline): 95 % of control | T/C (dose: 12.0 mg/kg/injection, schedule: Q04DX003 (ip), vehicle: saline): 93 % of control | T/C (dose: 25.0 mg/kg/injection, schedule: Q04DX003 (ip), vehicle: saline): 106 % of control

CCOC(=O)c1ccc(NC(=O)Nc2ccc(N(C)C(C)=O)cc2)cc1
T/C (dose: 25.0 mg/kg/injection, schedule: Q04DX003 (ip), vehicle: saline with Tween-80): 98 % of control | T/C [19]: 87 % of control | T/C (dose: 50.0 mg/kg/injection, schedule: Q04DX003 (ip), vehicle: saline with Tween-80): 96 % of control | T/C [11]: 100 % of control | T/C [5]: 87 % of control and 101 % of control | T/C (dose: 100.0 mg/kg/injection, schedule: Q04DX002 (ip), vehicle: saline with Tween-80): 90 % of control and 97 % of control | T/C [1]: 94 % of control and 109 % of control | T/C [12]: 97 % of control | T/C [6]: 90 % of control and 91 % of control | T/C (dose: 200.0 mg/kg/injection, schedule: Q04DX002 (ip), vehicle: saline with Tween-80): 87 % of control and 91 % of control | T/C [16]: 104 % of control | T/C [13]: 102 % of control | T/C (dose: 400.0 mg/kg/injection, schedule: Q04DX002 (ip), vehicle: saline with Tween-80): 88 % of control and 94 % of control

CCOC1=C(C#N)CC2(CC1)c1ccccc1-c1ccccc12
T/C [7]: 96 % of control | T/C [8]: 102 % of control | T/C [9]: 101 % of control

[O-][n+]1cc(N=Nc2ccc(Cl)cc2)nn1-c1ccc(Cl)cc1
T/C [14]: 86 % of control

O=[N+]([O-])O.[Cu+2].[NH-]C1CCCCC1[NH-].[NH-]C1CCCCC1[NH-] (configuration not stated)
T/C (dose: 12.5 mg/kg/injection, schedule: Q04DX002 (ip), vehicle: saline with Tween-80): 94 % of control

S=C(NCCSC(=S)Nc1ccccc1)Nc1ccccc1
T/C [5]: 91 % of control | T/C [6]: 89 % of control | T/C [17]: 106 % of control

Cc1ccn2c(=O)c(CCBr)c(C)nc2c1
T/C [10]: 96 % of control
